Reference: US9371337B2, “β-lactamase inhibitors” (The Regents of the University of California, priority 2011, dated 2016)
Where two headings read alike, the source gives them in different places.

Assays:
[1] = tested on: E. coli overproducing chromosomally-mediated class C β-lactamase; assay: MIC of third-generation cephalosporins alone and with compounds 4 or 9 (Table 3); format: cell-based, Escherichia coli; conditions: ratio 1:1
From the text: (§1) Antimicrobial activity was investigated quantitatively to determine the minimum inhibitory concentrations (MICs) of the β-lactam/inhibitor combination necessary to inhibit the bacterial growth (Table 3). The MICs of β-lactams alone against the strains corresponded to a high level of resistance according to Clinical and Laboratory Standards Institute (CLSI) standards. (Clinical and Laboratory Standards Institute, Performance standards for antimicrobial susceptibility testing, 20th Informational Supplement, M100-S20 2010) The compounds had no measurable antibiotic activity when used alone.
(§2) Susceptibility testing was performed and interpreted following the guidelines of CLSI. (Clinical and Laboratory Standards Institute, Performance standards for antimicrobial susceptibility testing, 20th Informational Supplement, M100-S20 2010) The compounds were dissolved in 50% DMSO, and dilutions were performed using Muller-Hinton medium. An adequate final concentration was obtained to determine the minimum inhibitory concentrations (MICs). The concentration of DMSO was maintained below 5%. The inhibitors were tested for synergy with the third-generation β-lactams ceftazidime and cefotaxime against several clinical bacteria. […] Each value reported reflects the average of three independent experiments. […] A Klebsiella pneumoniae isolate produced the inducible plasmid-mediated class C enzyme DHA-1. The Friedman's test and the Wilcoxon signed rank test were used to compare MIC values. Statistical significance was established at p<0.05.

[2] = tested on: E. coli producing plasmid-mediated class A β-lactamase CTX-M-14; assay: as above; format: cell-based, Escherichia coli; conditions: ratio 1:1
From the text: as §1, §2

[3] = tested on: C. freundii overproducing chromosomally-mediated class C β-lactamase; assay: as above; format: cell-based, Citrobacter freundii; conditions: ratio 1:1
From the text: as §1, §2

[4] = tested on: K. pneumoniae producing the plasmid-mediated class C β-lactamase DHA-1; assay: as above; format: cell-based, Klebsiella pneumoniae; conditions: ratio 1:1
From the text: as §1, §2

[5] = tested on: Klebsiella pneumoniae strain producing AmpC β-lactamase; assay: Disk diffusion plate assay; format: cell-based; conditions: for inhibition of bacterial growth in combination with ceftazidime: disk with ceftazidime (30 μg) and inhibitor (30 μg); for activity on bacteria growth, compound alone: disk with inhibitor alone (30 μg)
From the text: (§3) FIG. 9. Inhibition of bacterial growth and potentiation effect. A) Activity of compounds 4 (CP4) and 9 (CP9) in combination with ceftazidime (CAZ) and alone against a Klebsiella pneumoniae strain producing AmpC β-lactamase. Solvent (SOL):DMSO/Water 1:1. B) Potentiation of β-lactamase inhibition in an E. cloacae strain in which ampC gene expression is inducible by β-lactam antibiotics, such as cefoxitin (FOX). C) Potentiation of β-lactamase inhibition in a Klebsiella pneumoniae isolate producing the inducible class C enzyme DHA-1.
For disk diffusion plate assays, bacterial strains were diluted in sterile water to a turbidity equivalent to 0.5 McFarland turbidity standards. After a subsequent 10-fold dilution, the bacterial suspensions were inoculated on Mueller Hinton agar. The plates were dried for 10 min before applying the disks containing cefotaxime or ceftazidime antibiotics (30 μg) or the inhibitor (30 μg) or both. After overnight incubation at 37° C., the zones of bacterial-growth inhibition were measured.

[6] = target: T1, α-chymotrypsin (bovine pancreatic) (Bos taurus, UniProt P00766); assay: α-Chymotrypsin inhibition; format: biochemical
T1 construct: purchased Sigma-Aldrich
Procedure: α-Chymotrypsin assays were performed in 50 mM Tris buffer pH 7.5 with 0.01% Triton-X. Inhibitor and 0.001 mg/mL enzyme were incubated at their final concentration for 10 min before the reaction was initiated by the addition of 200 μM N-succinyl-Ala-Ala-Pro-Phe p-nitroanilide and monitored at 410 nm.
(§4) To assess the selectivity of the new molecules we determined Ki values against three common serine proteases, Trypsin, Elastase and α-Chymotrypsin, as well as that of a class A β-lactamase, CTX-M-9 (Table 10) (Pouvreau L, et al. (1998), FEBS Lett 423:167-172; Del Mar E G, et al. (1980), Biochemistry 19:468-472; Rodriguez-Martinez J A, et al. (2009), Biotechnol Lett 31:883-887; Chen Y, et al. (2005), J Mol Biol 348:349-362).

[7] = tested on: E. cloacae overproducing chromosomally-mediated class C β-lactamase; assay: MIC of third-generation cephalosporins alone and with compounds 4 or 9 (Table 3); format: cell-based, Enterobacter cloacae; conditions: ratio 1:1
From the text: as §1, §2

cruzain = cruzain (Trypanosoma cruzi, UniProt P25779); assay: Cruzain inhibition, Z-FR-AMC cleavage; format: biochemical
Sequence of cruzain (P25779 123-337 limits assumed): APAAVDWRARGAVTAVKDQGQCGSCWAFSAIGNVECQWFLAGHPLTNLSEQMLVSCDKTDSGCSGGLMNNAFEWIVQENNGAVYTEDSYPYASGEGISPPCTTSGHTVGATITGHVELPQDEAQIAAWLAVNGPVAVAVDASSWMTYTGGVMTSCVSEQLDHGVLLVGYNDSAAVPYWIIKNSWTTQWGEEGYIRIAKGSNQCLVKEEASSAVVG
Procedure: Cruzain assays were performed in 100 mM sodium acetate pH 5.5 with 0.01% Triton-X and 5 mM dithiothreitol. Cruzain activity was measured in a 96-well format fluorimetric assay, monitoring the cleavage of the substrate Z-Phe-Arg-aminomethylcoumarin (Z-FR-AMC), in a SpectraMax M5, Molecular Devices spectrofluorimeter.

[8] = tested on: P. aeruginosa overproducing chromosomally-mediated class C β-lactamase; assay: MIC of third-generation cephalosporins alone and with compounds 4 or 9 (Table 3); format: cell-based, Pseudomonas aeruginosa; conditions: ratio 1:1
From the text: as §1, §2

[9] = tested on: K. pneumoniae and E. cloacae strains in which AmpC expression is inducible; assay: β-lactamase induction experiments (disk potentiation of ceftazidime); format: cell-based, Klebsiella pneumoniae; Enterobacter cloacae; conditions: 64 μg of compounds or 32 μg cefoxitin per disk, ceftazidime disk 30 μg
From the text: as §3
A traditional β-lactam resistance mechanism is the upregulation of β-lactamase-encoding gene transcription caused by β-lactams such as cefoxitin and the β-lactamase inhibitor clavulanate. To test the role of compounds on the induction of AmpC expression, we investigated their ability to potentiate the action of the β-lactam ceftazidime. We compared the potentiation effect of compounds with that of cefoxitin (FIGS. 9B and 9C). Agar plates were inoculated with K. pneumoniae and E. cloacae strains in which AmpC expression is inducible. A ceftazidime-containing disk and a disk containing the inhibitors (cefoxitin or compounds 4 and 9) were placed on each plate. As ceftazidime diffuses from disks into the agar, a clear zone is created around the ceftazidime-containing disk, indicating where bacteria are unable to grow. The shape of this halo in the vicinity of the inhibitor-containing disk indicated the effect of these compounds on the induction of AmpC. The inhibition halos normally surrounding ceftazidime were substantially diminished in the regions nearest to the cefoxitin disk.
For the β-lactamase induction experiments, plates of Mueller Hinton agar were inoculated with two clinical strains (E. cloacae and K. pneumoniae) in which production of AmpC-type enzyme is inducible by β-lactam antibiotics. Inhibitors were added to blank disks, and the final content of inhibitor per disk was 64 μg of compounds and 32 μg cefoxitin. Disks of ceftazidime contained 30 μg of antibiotic.

CTX-M-9 β-lactamase = CTX-M-9 β-lactamase (Escherichia coli, UniProt Q9L5C8); assay: biochemical; format: biochemical
Sequence of CTX-M-9 β-lactamase (Q9L5C8 29-291): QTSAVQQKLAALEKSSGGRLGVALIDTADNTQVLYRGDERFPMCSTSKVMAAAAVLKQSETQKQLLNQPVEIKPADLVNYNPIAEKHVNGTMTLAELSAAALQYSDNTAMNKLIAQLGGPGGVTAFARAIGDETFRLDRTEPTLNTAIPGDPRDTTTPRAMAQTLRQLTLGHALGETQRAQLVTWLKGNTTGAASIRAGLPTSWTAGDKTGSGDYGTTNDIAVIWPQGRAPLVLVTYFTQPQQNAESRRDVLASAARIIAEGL
Procedure: Reactions were initiated by the addition of 0.3 nM enzyme and monitored at 405 nm.
as §4

AmpC β-lactamase [10] = target: T2, AmpC β-lactamase (Escherichia coli, UniProt P00811); format: biochemical; conditions: enzyme incubation and dilution experiments
T2 construct: made in house
T2 sequence (P00811 20-377): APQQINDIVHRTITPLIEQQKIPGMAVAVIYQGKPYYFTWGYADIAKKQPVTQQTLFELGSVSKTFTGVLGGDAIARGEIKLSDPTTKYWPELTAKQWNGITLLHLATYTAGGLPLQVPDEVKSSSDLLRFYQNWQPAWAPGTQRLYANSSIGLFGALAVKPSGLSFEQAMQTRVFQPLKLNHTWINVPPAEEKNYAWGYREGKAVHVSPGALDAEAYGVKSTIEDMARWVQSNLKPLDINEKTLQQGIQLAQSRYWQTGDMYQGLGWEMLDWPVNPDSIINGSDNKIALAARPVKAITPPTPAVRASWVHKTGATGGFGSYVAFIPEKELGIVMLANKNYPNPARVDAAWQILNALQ

Elastase = target: T3, Elastase (Sus scrofa, UniProt P00772); assay: Elastase inhibition; format: biochemical
T3 construct: IC50 (Estimated from single concentration measurement); Ki
T3 sequence (P00772 27-266): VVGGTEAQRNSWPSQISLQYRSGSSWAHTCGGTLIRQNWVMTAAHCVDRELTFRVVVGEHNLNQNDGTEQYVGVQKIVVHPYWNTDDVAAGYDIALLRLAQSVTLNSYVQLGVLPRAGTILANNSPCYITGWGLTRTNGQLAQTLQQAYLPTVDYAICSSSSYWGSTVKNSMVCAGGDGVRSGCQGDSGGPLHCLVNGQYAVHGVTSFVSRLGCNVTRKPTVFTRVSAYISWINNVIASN
From the text: as §4

Trypsin = target: T4, Trypsin (UniProt P00760); assay: Trypsin inhibition; format: biochemical
T4 construct: IC50 (Estimated from single concentration measurement); Ki
T4 sequence (P00760 1-246): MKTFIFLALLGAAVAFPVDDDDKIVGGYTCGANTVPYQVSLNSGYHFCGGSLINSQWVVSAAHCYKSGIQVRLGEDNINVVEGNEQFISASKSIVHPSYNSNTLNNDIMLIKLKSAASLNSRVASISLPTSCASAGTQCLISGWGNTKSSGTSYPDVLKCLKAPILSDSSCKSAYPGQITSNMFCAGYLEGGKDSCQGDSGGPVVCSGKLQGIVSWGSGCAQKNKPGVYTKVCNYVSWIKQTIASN

AmpC β-lactamase [11] = target: T2, AmpC β-lactamase; assay: biochemical; format: biochemical
Procedure: FIG. 18. Representative IC50 curves. […] IC50 curves were obtained by measuring rates (in duplicates) at different inhibitor concentrations (x-axis) and by determining the residual activity (y-axis, in percentage). IC50 values were determined by non-linear regression and Ki values calculated using GraphPad software assuming competitive inhibition.
Sulfonamidomethaneboronic acids were dissolved in 100% DMSO at a concentration of 100 mM; more diluted stocks were prepared as necessary. […] The enzyme was expressed and purified as described (Usher, K. C. et al., Biochemistry 1998, 37, 16082-16092) and CENTA was purchased from Tydock Pharma.
Kinetic measurements were run at room temperature in 50 mM sodium-cacodylate pH 6.5 in the presence of 0.01% Triton-X to prevent non-specific inhibition via compound aggregation. […] (Kettner, C. A. and Shenvi, A. B., J. Biol. Chem. 1984, 259, 15106-15114) Reactions were performed in 1 mL cuvettes with 60 μM CENTA and initiated by adding 1.2 nM enzyme. […] (Weston, G. S. et al., J. Med. Chem. 1998, 41, 4577-4586) The first 180 sec of each reaction were used to measure initial rates. IC50 values were obtained by fitting binding data to a sigmoidal dose-response equation using GraphPad Prism (GraphPad software, Inc). Ki values were determined by the use of Cheng-Prusoff equation. (Cheng, Y. and Prusoff, W. H., Biochem. Pharmacol. 1973, 22, 3099-3108)

[12] = Table 8, read-out: Ki vs CTX-M-9
[13] = Table 4e, read-out: IC50 (Estimated from single concentration measurement)
[14] = Table 4f, read-out: IC50 (from multi- or single concentration measurements)
[15] = Table 4g, read-out: Ki (from multi- or single concentration measurements)

Row | Compound | MIC of cefotaxime with compound [1] [µg/mL] | MIC of ceftazidime with compound [1] [µg/mL] | MIC of cefotaxime with compound [2] [µg/mL] | MIC of ceftazidime with compound [2] [µg/mL] | MIC of cefotaxime with compound [3] [µg/mL] | MIC of ceftazidime with compound [3] [µg/mL] | MIC of cefotaxime with compound [4] [µg/mL] | MIC of ceftazidime with compound [4] [µg/mL] | inhibition of bacterial growth in combination with ceftazidime [5] | activity on bacteria growth, compound alone [5] | inhibition at 100 µM [6] | MIC of cefotaxime with compound [7] [µg/mL] | MIC of ceftazidime with compound [7] [µg/mL] | inhibition at 100 µM (cruzain) | MIC of cefotaxime with compound [8] [µg/mL] | MIC of ceftazidime with compound [8] [µg/mL] | effect on the ceftazidime inhibition halo (induction of AmpC) [9] | IC50 (CTX-M-9 β-lactamase; Table 4a, read-out: IC50) [µM] | Ki (CTX-M-9 β-lactamase; [12]) [µM] | other results
1 | O=S(=O)(Cc1ccccc1)NCB(O)O [Compound 4, Pinacol(phenylmethanesulfonylamino)methaneboronate] | 1 | 4 | 16 | 2 | 2 | 4 | 4 | 8 | large inhibition halo | little or no detectable activity | no measurable inhibition | 4 | 4 | no measurable inhibition | 16 | 4 | synergic picture | 6.87 | – | IC50 [6]: > 500 µM; IC50 (cruzain): > 500 µM; Ki (CTX-M-9 β-lactamase): 2.5 µM; Ki (CTX-M-9 β-lactamase; read-out: Ki corresponding to the IC50 values): 2.53 µM
2 | O=C(O)c1ccc(CS(=O)(=O)NCB(O)O)cc1 [Compound 9, [(4-carboxyphenyl)methanesulfonylamino]methaneboronic acid] | 2 | 8 | 8 | 1 | 4 | 4 | 2 | 4 | large inhibition halo | little or no detectable activity | no measurable inhibition | 8 | 4 | no measurable inhibition | 32 | 8 | synergic picture | 1.5 | 0.55 | time dependence of inhibition (incubation effect, off-rate) (AmpC β-lactamase [10]): no measurable time dependence; IC50 ([6]; read-out: IC50): > 500 µM; IC50 (cruzain; read-out: IC50): > 500 µM
3 | CO[C@@]1(NC(=O)Cc2cccs2)C(=O)N2C(C(=O)O)=C(COC(N)=O)CS[C@@H]21 [cefoxitin, reference compound] | – | – | – | – | – | – | – | – | – | – | – | – | – | – | – | – | antagonist picture | – | – | –
4 | Pinacol(chloromethanesulfonylamino)methaneboronate [CR70] | – | – | – | – | – | – | – | – | – | – | – | – | – | – | – | – | – | – | 5.9 | Percentage inhibition with 100 μM inhibitor (Elastase): 90; Percentage activity with 100 μM inhibitor (Elastase; Table 4b, 100 μM inhibitor): 10; potency estimated from few doses (Elastase; [13]): 11 µM; Percentage activity with 100 μM inhibitor (Trypsin; Table 4b, 100 μM inhibitor): 97; Percentage inhibition with 100 μM inhibitor (Trypsin; Table 4c, 100 μM inhibitor): 3; potency estimated from few doses (Trypsin; [13]): 3230 µM; Percentage activity with 100 μM inhibitor ([6]; Table 4b, 100 μM inhibitor): 90; Percentage inhibition with 100 μM inhibitor ([6]; Table 4c, 100 μM inhibitor): 10; potency estimated from few doses [6, 13]: 900 µM; IC50 (AmpC β-lactamase [11]; [14]): 1.55 µM; Ki (AmpC β-lactamase [11]; [15]): 0.3 µM; Ki (AmpC β-lactamase [11]; Table 7, read-out: Ki Vs AmpC): 0.31 µM; Ki (AmpC β-lactamase [11]; Table 8, read-out: Ki vs AmpC): 0.31 µM; potency estimated from few doses (CTX-M-9 β-lactamase; [13]): 16 µM; IC50 (CTX-M-9 β-lactamase; [14]): 16 µM; Ki (CTX-M-9 β-lactamase; [15]): 5.9 µM; Percentage inhibition with 16 μM inhibitor (CTX-M-9 β-lactamase; Table 4d, 16 μM inhibitor): 50
